Experimental data taken from patent publication US20040181130A1, “Methods for diagnosing skin lesions” (3M Innovative Properties Company, priority 2003, published 2004).

System: AK lesions
Experiment: Increase in AK lesion count during 16-week topical treatment of volunteers with AK lesions
Format: in vivo, human
Source text: Volunteers having from four to eight clinically diagnosed AK lesions located within a 25 cm^2 treatment area were enrolled in a study. The study consisted of a prestudy period, a 16-week treatment period, and an 8-week post treatment period. Enrolled participants were randomized to receive either 5% imiquimod cream (ALDARA, 3M Pharmaceuticals, St. Paul, Minn.) or placebo cream containing no biologically active ingredient.
Subjects were instructed to topically administer cream from a single-use sachet. Sachets that contained imiquimod contained 250 mg of cream. One group of subjects applied cream two days per week for sixteen weeks, with dosing days occurring a minimum of three days apart. A second group of subjects applied cream three days per week for sixteen weeks, with dosing days occurring at least two days apart.
At a pretreatment visit, a baseline AK lesion count was established for each subject. Updated AK lesion counts were calculated at visits after four weeks, eight weeks, and sixteen weeks of treatment. For each individual, “new” AK lesions were calculated as the difference between the updated AK count and the baseline AK count. Thus, subclinical AK lesions may become apparent after treatment with ALDARA cream.

[1] = 5% cream topical 2x/week, Any visit, N=215
[2] = 5% cream topical 2x/week, Week 4, N=215
[3] = 5% cream topical 2x/week, Week 8, N=215
[4] = 5% cream topical 2x/week, Week 16, N=215
[5] = 5% cream topical 3x/week, Any visit, N=242
[6] = 5% cream topical 3x/week, Week 4, N=242
[7] = 5% cream topical 3x/week, Week 8, N=242
[8] = 5% cream topical 3x/week, Week 16, N=242

## CC(C)Cn1cnc2c(N)nc3ccccc3c21 [Imiquimod, imiquimod]
[1]
  % of Subjects with an Increase in AK Lesion Count: 47.9%
  Number of Subjects with an Increase in AK Lesion Count: 103
[2]
  % of Subjects with an Increase in AK Lesion Count: 36.7%
  Number of Subjects with an Increase in AK Lesion Count: 79
[3]
  % of Subjects with an Increase in AK Lesion Count: 28.4%
  Number of Subjects with an Increase in AK Lesion Count: 61
[4]
  % of Subjects with an Increase in AK Lesion Count: 9.3%
  Number of Subjects with an Increase in AK Lesion Count: 20
[5]
  % of Subjects with an Increase in AK Lesion Count: 42.6%
  Number of Subjects with an Increase in AK Lesion Count: 103
[6]
  % of Subjects with an Increase in AK Lesion Count: 33.1%
  Number of Subjects with an Increase in AK Lesion Count: 80
[7]
  % of Subjects with an Increase in AK Lesion Count: 16.5%
  Number of Subjects with an Increase in AK Lesion Count: 40
[8]
  % of Subjects with an Increase in AK Lesion Count: 6.2%
  Number of Subjects with an Increase in AK Lesion Count: 15
